# pIC50: −log10 of the molar value. Counter-ions that a name gives are not always drawn.
# Legend:
# [1] = tested on: left auricle of guinea-pigs; assay: Effect on the toxic effects of ouabain on the left auricle of guinea-pigs; settings: compound 10^-5 M, ouabain 10^-6 M; for % contracture: percentage of the initial contraction developed
# Protocol: The left auricles are removed from guinea-pigs (350-450 g) which have been anaesthetised with sodium pentobarbital (30 mg/kg). The auricles are attached to a STATHAM (UC2-GOULD) tension sensor and the initial tension applied is 0.5 grammes. The auricles are stimulated electrically at 1 Hz by means of platinum electrodes.
# Toxic effect is achieved by the addition of ouabain (10^-6 M). The test compounds are added 15 minutes prior to the addition of the toxic agent.
# isolated rat's heart = assay: Protective effect on an isolated rat's heart subjected to hypoxia-reoxygenation; design: species or system WISTAR rats; settings: compound 8·10^-7 M, solvent H2O; for % PVG at 30 min DE REOXYGENATION: 30 min reoxygenation after 60 min hypoxia
# Protocol: The heart is removed from WISTAR rats (325-375 g). The heart is perfused rapidly according to the technique of LANGENDORFF at a constant pressure of 76 mmHg and is stimulated electrically at 5 Hz.
# The heart is subjected to hypoxia for 60 minutes, which is effected by the administration of a gaseous mixture of 95% N2 +5% CO2 during that period, and is followed by reoxygenation for 30 minutes.
# The test compounds are incubated for 15 minutes prior to and for the duration of the hypoxia.
# The isovolumetric contractions are recorded by means of a polyethylene balloon connected to a pressure sensor (P23-GOULD) introduced into the left ventricle and inflated so as to obtain a diastolic pressure of between 5 and 10 mm of mercury.
# rat aortas = assay: Anti-vasoconstrictive activity in physiological medium: contraction of rat aortas induced by potassium depolarisation; design: species or system WISTAR rats; settings: 0.25 h, hyperpotassic medium (80 mM KCl, 37 mM NaCl), cumulative concentrations every 15 minutes, 37° C., read-out: Concentration inhibiting by 50% (IC50) the contraction of rat aortas induced by potassium depolarisation
# Protocol: (§1) The studies are carried out on rings, having a length of 3 mm, of aortas removed from WISTAR rats (325-375 g) which have been anaesthetised with sodium pentobarbital (30 mg/kg i.p.); or of aortas removed from New Zealand rabbits (1.8-2 kg) which have likewise been anaesthetised with sodium pentobarbital (30 mg/kg i.p.).
# (§2) The vascular rings are immersed in a physiological solution, normal or calcium-free (+0.2 mM of EGTA chelator), which is kept at a temperature of 37° C. and aerated with a mixture of 95% O2 +5% CO2. The rings are connected to a STATHAM (UC2-GOULD) tension sensor. The optimum tensions for each vessel are applied and a stabilisation period of 90 minutes for the specimens is observed.
# Table (T1) summarises the IC50s obtained with the compounds of the Examples representing the compounds of the invention, with regard to the contraction of rat aortas induced by a hyperpotassic medium.
# rabbit aortas = assay: Anti-vasoconstrictive activity in calcium-free medium: contraction of rabbit aortas induced by noradrenaline; design: species or system New Zealand rabbits; settings: Oryctolagus cuniculus, 0.5 h, 30 minutes incubation, noradrenaline 10^-6 M, calcium-free (+0.2 mM EGTA); for inhibition at 1 µM: 10^-6 M compound; for inhibition at 0.1 µM: 10^-7 M compound
# Protocol: as §1, §2
# The inhibitory effect of a concentration of the compounds of the invention incubated for 30 minutes, with regard to vascular contraction induced by nonadrenaline (10^-6 M), is tested.
Structure (SMILES),"% contraction ([1]; 10 min, solvent H2O) [%]","% contracture ([1]; 15 min, solvent H2O) [%]","% contraction ([1]; 30 min, solvent H2O) [%]","% contracture ([1]; 30 min, solvent H2O) [%]","% contraction ([1]; 60 min, solvent H2O) [%]","% contracture ([1]; 60 min, solvent H2O) [%]",Contracture amplitude at 15 min reoxygenation (isolated rat's heart) [mmHg],% PVG at 30 min DE REOXYGENATION (isolated rat's heart) [%],Contracture amplitude at 30 min reoxygenation (isolated rat's heart) [mmHg],pIC50 (rat aortas),inhibition at 1 µM (rabbit aortas) [%],inhibition at 0.1 µM (rabbit aortas) [%],"% contraction ([1]; 10 min, solvent DMSO) [%]","% contracture ([1]; 15 min, solvent DMSO) [%]","% contraction ([1]; 30 min, solvent DMSO) [%]","% contracture ([1]; 30 min, solvent DMSO) [%]","% contraction ([1]; 60 min, solvent DMSO) [%]","% contracture ([1]; 60 min, solvent DMSO) [%]"
"CN(CCCC(=O)c1ccc(F)cc1)CC1CCN(S(=O)(=O)c2cccc3cnccc23)CC1 [Example 5, Dihydrochloride of 1-(isoquinolin-5-ylsulphonyl)-4-{N-methyl-N-[4-(p-fluorophenyl)-4-oxobutyl]aminomethyl}piperidine]",206.1 ± 21,0,186.1 ± 21.2,2.8 ± 2.1,141.3 ± 25.3,16.5 ± 9.5,–,–,–,–,–,–,–,–,–,–,–,–
"CN(CCCOc1ccc(F)cc1)CC1CCN(S(=O)(=O)c2cccc3cnccc23)CC1 [Example 3, Fumarate of 1-(isoquinolin-5-ylsulphonyl)-4-{{N-methyl-N-[3-(p-fluorophenoxy)propyl]amino}methyl}piperidine]",183.3 ± 20.7,0.9 ± 0.9,155.4 ± 15.0,7.7 ± 1.5,130.7 ± 34.5,21.8 ± 6.2,9.6 ± 2.4,85.4 ± 5.8,1.6 ± 1.0,5.82,82,43,–,–,–,–,–,–
"CN(CCCCCOc1ccc(F)cc1)C1CCN(S(=O)(=O)c2cccc3cnccc23)CC1 [Example 4, Fumarate of 1-(isoquinolin-5-ylsulphonyl)-4 {N-methyl N-[5-(p-fluorophenoxy)pentyl]amino}piperidine]",–,–,–,–,–,–,–,–,–,–,–,–,213.9 ± 22,0,208.6 ± 22,0,211.1 ± 30,0
"CN(CCCC(=O)c1ccc(F)cc1)C1CCN(S(=O)(=O)c2cccc3cnccc23)CC1 [Example 2, Dihydrochloride of 1-(isoquinolin-5-ylsulphonyl)-4-{N-methyl-N-[4-oxo-4-(p-fluorophenyl)butyl]amino}piperidine]",184.0 ± 17.3,1.4 ± 1.4,138.8 ± 34.9,10.5 ± 4.7,112.2 ± 31.0,33.5 ± 16.4,5.5 ± 4.3,95.0 ± 1.9,0.5 ± 0.5,5.48,86,50,–,–,–,–,–,–
"CN(CCCCOc1ccc(F)cc1)C1CCN(S(=O)(=O)c2cccc3cnccc23)CC1 [Example 1, Fumarate of 1-(isoquinolin-5-ylsulphonyl)-4-{N-methyl-N-[4-(p-fluorophenoxy)butyl]amino}piperidine]",–,–,–,–,–,–,–,–,–,5.04,62,–,254.7 ± 22,0,260.6 ± 29,0,253.6 ± 26,4 ± 4

# From patent US5298503A, “N-(isoquinolin-5-ylsulphonyl) azacycloalkanes” (Adir et Compagnie, priority 1991, dated 1994)
